Results reported in patent US20100119599A1 (ARCHER PHARMACEUTICALS, INC., priority 2006, published 2010).

What was measured:
Aβ1-42 = assay: Measurement of Aβ1-42 in culture medium of 7W WT APP751 CHO cells by ELISA; format: cell-based, Chinese hamster; conditions: for activity at 5 µM: Cricetulus griseus, Table 1, 5 μM test compound, CHO cells stably transfected with human APP751, culture medium, ELISA, control DMSO, 0 = no detectable amount, read-out: Aβ1-42 (% of control); for Aβ1-42 (% of control): CHO cells that overexpress APP751, zero = below the detection limit of the assay
Aβ1-40 = assay: Measurement of Aβ1-40 in culture medium of 7W WT APP751 CHO cells by ELISA; format: cell-based, Chinese hamster; conditions: for activity at 5 µM: Cricetulus griseus, Table 1, 5 μM test compound, CHO cells stably transfected with human APP751, culture medium, ELISA, control DMSO, 0 = no detectable amount; for Aβ1-40 (% of control): CHO cells that overexpress APP751, zero = below the detection limit of the assay
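Further: 5 µM test compound but RI-coded compounds at 10 µM for 24 hours.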

| SMILES | activity at 5 µM (Aβ1-42) [%] | activity at 5 µM (Aβ1-40) [%] | Aβ1-42 (% of control) (Aβ1-42) | Aβ1-40 (% of control) (Aβ1-40) |
| --- | --- | --- | --- | --- |
| COCCOC(=O)C1=C(C)NC2=C(C(=O)CC(C)(C)C2)C1c1cccnc1 (stereo not drawn) [ST017252, 2-methoxyethyl 2,7,7-trimethyl-5-oxo-4-(3-pyridyl)-1,4,6,7,8-pentahydroquinoline-3-carboxylate] | 70.5 | 89.6 |  |  |
| CCC(C)OC(=O)C1=C(C)NC2=C(C(=O)CC(c3ccc(Cl)cc3)C2)C1c1ccc(Cl)cc1 (stereo not drawn) [ST017089, methylpropyl 4,7-bis(4-chlorophenyl)-2-methyl-5-oxo-1,4,6,7,8-pentahydroquinoline-3-carboxylate] | 82.5 | 26.9 |  |  |
| CCCCCOC(=O)C1=C(C)NC2=C(C(=O)CC(C)(C)C2)C1c1ccc(Cl)cc1 (stereo not drawn) [ST013054, pentyl 4-(4-chlorophenyl)-2,7,7-trimethyl-5-oxo-1,4,6,7,8-pentahydroquinoline-3-carboxylate] | 8.36 | 0 |  |  |
| CC1=C(C(=O)OCCc2ccccc2)C(c2ccc(C)s2)C2=C(CC(C)(C)CC2=O)N1 (stereo not drawn) [ST052344, 2-phenylethyl 2,7,7-trimethyl-4-(5-methyl(2-thienyl))-5-oxo-1,4,6,7,8-pentahydroquinoline-3-carboxylate] | 24.4 | 24.1 |  |  |
| COc1cccc(/C=c2/sc3n(c2=O)C(N)=C(C#N)C(c2cccc(OC)c2)C=3C#N)c1 (stereo not drawn) [ST215713, 5-amino-7-(3-methoxyphenyl)-2-[(3-methoxyphenyl)methylene]-3-oxo-4,7-dihydro-1,3-thiazolidino[3,2-a]pyridine-6,8-dicarbonitrile] |  |  | 80.48 % of control | 69.2 % of control |
| CCN(CC)c1ccc(C2C(C(=O)OCCOc3ccccc3)=C(C)NC3=C2C(=O)CC(C)(C)C3)cc1 (stereo not drawn) [ST015075, 2-phenoxyethyl 4-[4-(diethylamino)phenyl]-2,7,7-trimethyl-5-oxo-1,4,6,7,8-pentahydroquinoline-3-carboxylate] | 42.2 | 51.7 |  |  |
| CC1=C(C(=O)Nc2ccccc2)C(c2cccs2)C(C#N)=C(SCC(=O)N2CCCCCCCCCCC2)N1 (stereo not drawn) [RI_32] |  |  | 62.8 % of control | 62.9 % of control |
| CCc1ccc(C2C(C(=O)OC3CCCC3)=C(C)NC3=C2C(=O)CC(C)(C)C3)cc1 (stereo not drawn) [ST013227, cyclopentyl 4-(4-ethylphenyl)-2,7,7-trimethyl-5-oxo-1,4,6,7,8-pentahydroquinoline-3-carboxylate] | 92.7 | 0 |  |  |
| CCOC(=O)C1=c2s/c(=C/c3ccc(C)s3)c(=O)n2C(N)=C(C#N)C1c1ccc(C)s1 (stereo not drawn) [ST011766] |  |  | 9.558 % of control | 21.1 % of control |
| CC1=C(C(=O)OCCOc2ccccc2)C(c2cccc(Cl)c2)C2=C(CCCC2=O)N1 (stereo not drawn) [ST015091, 2-phenoxyethyl 4-(3-chlorophenyl)-2-methyl-5-oxo-1,4,6,7,8-pentahydroquinoline-3-carboxylate] | 75.8 | 62.4 |  |  |
| COC(=O)C1=C(C)NC2=C(C(=O)CC(C)(C)C2)C1c1ccc(-c2ccccc2)cc1 (stereo not drawn) [ST216875, methyl 2,7,7-trimethyl-5-oxo-4-(4-phenylphenyl)-1,4,6,7,8-pentahydroquinoline-3-carboxylate] | 33 | 14.2 |  |  |
| CC1=C(C(=O)Nc2ccccc2)C(c2ccsc2)C(C#N)=C(SCC(=O)Nc2ccccc2)N1 (stereo not drawn) [RI_6] |  |  | 65.1 % of control | 77.7 % of control |
| CCCCOC(=O)C1=C(C)NC2=C(C(=O)CCC2)C1c1ccc(Br)cc1 (stereo not drawn) [ST017167, butyl 4-(4-bromophenyl)-2-methyl-5-oxo-1,4,6,7,8-pentahydroquinoline-3-carboxylate] | 50.5 | 79 |  |  |
| CC1=C(C(=O)OC(C)C)C(c2ccncc2)C2=C(CCCC2=O)N1 (stereo not drawn) [ST013090, methylethyl 2-methyl-5-oxo-4-(4-pyridyl)-1,4,6,7,8-pentahydroquinoline-3-carboxylate] | 87.3 | 41.1 |  |  |
| CCn1c2ccccc2c2cc(C3C(C(=O)OCC4CCCO4)=C(C)NC4=C3C(=O)CCC4)ccc21 (stereo not drawn) [ST052207, oxolan-2-ylmethyl 4-(9-ethylcarbazol-3-yl)-2-methyl-5-oxo-1,4,6,7,8-pentahydroquinoline-3-carboxylate] | 59.6 | 52.3 |  |  |
| COC(=O)CSC1=C(C#N)C(c2cccs2)C(C(C)=O)=C(C)N1 (stereo not drawn) [ST014038, methyl 2-(5-acetyl-3-cyano-6-methyl-4-(2-thienyl)-2-1,4-dihydropyridylthio)acetate] |  |  | 21.82 % of control | 29.98 % of control |
| CCOC(=O)C1=C(C)NC2=C(C(=O)CCC2)C1c1ccc(O)c(OCC)c1 (stereo not drawn) [ST013158, ethyl 4-(3-ethoxy-4-hydroxyphenyl)-2-methyl-5-oxo-1,4,6,7,8-pentahydroquinoline-3-carboxylate] | 67.8 | 75 |  |  |
| CC1=C(C(=O)OCC(C)C)C(c2ccc3c(c2)OCO3)C2=C(CC(c3ccccc3)CC2=O)N1 (stereo not drawn) [ST016978, 2-methylpropyl 4-(2H-benzo[3,4-d]1,3-dioxolen-5-yl)-2-methyl-5-oxo-7-phenyl-1,4,6,7,8-pentahydroquinoline-3-carboxylate] | 99.5 | 45.9 |  |  |
| COc1ccc(OC)c(C2C(C(=O)OCCc3ccccc3)=C(C)NC3=C2C(=O)CCC3)c1 (stereo not drawn) [ST052373, 2-phenylethyl 4-(2,5-dimethoxyphenyl)-2-methyl-5-oxo-1,4,6,7,8-pentahydroquinoline-3-carboxylate] | 37.4 | 39.4 |  |  |
| COC(=O)C1=CN(Cc2ccc(F)cc2)C=C(C(=O)OC)C1c1ccc(OC)cc1OC [ST038081, methyl 4-(2,4-dimethoxyphenyl)-1-[(4-fluorophenyl)methyl]-5-(methoxycarbonyl)-1,4-dihydropyridine-3-carboxylate] |  |  | 92.93 % of control | 36.22 % of control |
| CCc1ccc(C2C(C(=O)OCc3ccccc3)=C(C)NC3=C2C(=O)CCC3)cc1 (stereo not drawn) [ST015031, phenylmethyl 4-(4-ethylphenyl)-2-methyl-5-oxo-1,4,6,7,8-pentahydroquinoline-3-carboxylate] | 71.3 | 33.1 |  |  |
| N#CC1=C(N)n2c(s/c(=C\c3ccc(O)cc3)c2=O)=C(C#N)C1c1ccc(O)cc1 (stereo not drawn) [ST025034, 5-amino-7-(4-hydroxyphenyl)-2-[(4-hydroxyphenyl)methylene]-3-oxo-4,7-dihydro-1,3-thiazolidino[3,2-a]pyridine-6,8-dicarbonitrile] |  |  | 85.11 % of control | 69.9 % of control |
| CCOC(=O)C1=C(C)NC2=C(C(=O)CCC2)C1c1ccc(N(C)C)cc1 (stereo not drawn) [ST013066, ethyl 4-[4-(dimethylamino)phenyl]-2-methyl-5-oxo-1,4,6,7,8-pentahydroquinoline-3-carboxylate] | 96.7 | 68.4 |  |  |
| CCOc1ccc(C2C(C(=O)OC(C)C)=C(C)NC3=C2C(=O)CCC3)cc1OC (stereo not drawn) [ST013323, methylethyl 4-(4-ethoxy-3-methoxyphenyl)-2-methyl-5-oxo-1,4,6,7,8-pentahydroquinoline-3-carboxylate] | 80.1 | 56.7 |  |  |
